Measured values published in patent publication US7056891B2 (priority 2000, dated 2006).
Read-outs that look alike come from different tables or passages of the source.

Columns and labels:
TSST-1 = assay type: cell-based, S. aureus MN8
S. aureus MN8 = assay type: cell-based, Staphylococcus aureus; conditions: 24 hours at 35° C.

Row | Substance | TSST-1 (TSST-1) [ng/mL] | Final [S. aureus] (S. aureus MN8) | TSST-1 (TSST-1; 24 hours at 35° C.) [ng/mL]
1 | PPG-5 Laureth-5 | 609.2 | 3.82 x10^9 CFU/ml | 
2 | Steareth-2 |  | 5.76 x10^9 CFU/ml | 680.7
3 | Laureth-4 |  | 4.57 x10^9 CFU/ml | 531.8
